Columns and labels:
Experiment in all cases: relative viability (nuclei count vs DMSO), 5 days (fraction); higher = more cells survive
NCI-H650 = system: NCI-H650
In short: (§1)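 Nuclei were stained with Hoechst during a one-step fixation (final 0.05% Triton X-100, 1% formaldehyde, 1 ug/ml Hoechst) carried out 5 days after dosing, then counted on 4× images. The cells, lung cancer lines in 1536-well plates, had been dosed by pin tool the day after seeding with one drug alone or a fixed anchor-drug dose plus five library-drug doses (not always all listed) in √10 steps. Relative viability is the nuclei count in treated wells divided by that in vehicle wells, and each value is the median of duplicate plates.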

HCC-827 = system: HCC-827
In short: as §1

SK-MES-1 = system: SK-MES-1
In short: as §1

NCI-H596 = system: NCI-H596
In short: as §1

HCC-44 = system: HCC-44
In short: as §1

NCI-H1437 = system: NCI-H1437
In short: as §1

NCI-H441 = system: NCI-H441
In short: as §1

NCI-H358 = system: NCI-H358
In short: as §1

HCC-15 = system: HCC-15
In short: as §1

A-427 = system: A-427
In short: as §1

NCI-H1650 = system: NCI-H1650
In short: as §1

HARA = system: HARA
In short: as §1

NCI-H1975 = system: NCI-H1975
In short: as §1

COR-L23 = system: COR-L23
In short: as §1

NCI-H23 = system: NCI-H23
In short: as §1

201T = system: 201T
In short: as §1

NCI-H2342 = system: NCI-H2342
In short: as §1

EKVX = system: EKVX
In short: as §1

SW 900 = system: SW 900
In short: as §1

NCI-H1792 = system: NCI-H1792
In short: as §1

BEN = system: BEN
In short: as §1

NCI-H838 = system: NCI-H838
In short: as §1

SMILES: CC(=O)O[C@@]12CO[C@@H]1C[C@H](O)[C@@]1(C)C(=O)[C@H](O)C3=C(C)[C@@H](OC(=O)[C@H](O)[C@@H](NC(=O)OC(C)(C)C)c4ccccc4)C[C@@](O)([C@@H](OC(=O)c4ccccc4)[C@H]21)C3(C)C [Docetaxel] + Nc1ncn([C@H]2C[C@H](O)[C@@H](CO)O2)c(=O)n1 [Decitabine] (partner 2 µM)
- relative viability (NCI-H650; first compound 0.0002 µM): 0.299
- relative viability (NCI-H650; first compound 0.000632 µM): 0.307
- relative viability (NCI-H650; first compound 0.002 µM): 0.274
- relative viability (NCI-H650; first compound 0.006325 µM): 0.278
- relative viability (NCI-H650; first compound 0.02 µM): 0.127
- relative viability (HCC-827; first compound 0.0002 µM): 0.2
- relative viability (HCC-827; first compound 0.000632 µM): 0.343
- relative viability (HCC-827; first compound 0.002 µM): 0.279
- relative viability (HCC-827; first compound 0.006325 µM): 0.251
- relative viability (HCC-827; first compound 0.02 µM): 0.236
- relative viability (SK-MES-1; first compound 0.0002 µM): 0.375
- relative viability (SK-MES-1; first compound 0.000632 µM): 0.381
- relative viability (SK-MES-1; first compound 0.002 µM): 0.347
- relative viability (SK-MES-1; first compound 0.02 µM): 0.164
- relative viability (NCI-H596; first compound 0.0002 µM): 1.02
- relative viability (NCI-H596; first compound 0.000632 µM): 1.01
- relative viability (NCI-H596; first compound 0.002 µM): 1.02
- relative viability (NCI-H596; first compound 0.006325 µM): 0.639
- relative viability (NCI-H596; first compound 0.02 µM): 0.372
- relative viability (HCC-44; first compound 0.0002 µM): 0.96
- relative viability (HCC-44; first compound 0.000632 µM): 0.97
- relative viability (HCC-44; first compound 0.002 µM): 0.853
- relative viability (HCC-44; first compound 0.006325 µM): 0.472
- relative viability (HCC-44; first compound 0.02 µM): 0.566
- relative viability (NCI-H1437; first compound 0.0002 µM): 0.526
- relative viability (NCI-H1437; first compound 0.000632 µM): 0.629
- relative viability (NCI-H1437; first compound 0.002 µM): 0.406
- relative viability (NCI-H1437; first compound 0.006325 µM): 0.307
- relative viability (NCI-H1437; first compound 0.02 µM): 0.196
- relative viability (NCI-H441; first compound 0.0002 µM): 0.25
- relative viability (NCI-H441; first compound 0.000632 µM): 0.234
- relative viability (NCI-H441; first compound 0.002 µM): 0.178
- relative viability (NCI-H441; first compound 0.006325 µM): 0.2
- relative viability (NCI-H441; first compound 0.02 µM): 0.163
- relative viability (NCI-H358; first compound 0.0002 µM): 0.183
- relative viability (NCI-H358; first compound 0.000632 µM): 0.189
- relative viability (NCI-H358; first compound 0.002 µM): 0.18
- relative viability (NCI-H358; first compound 0.006325 µM): 0.135
- relative viability (NCI-H358; first compound 0.02 µM): 0.116
- relative viability (HCC-15; first compound 0.0002 µM): 0.58
- relative viability (HCC-15; first compound 0.000632 µM): 0.338
- relative viability (HCC-15; first compound 0.002 µM): 0.217
- relative viability (HCC-15; first compound 0.02 µM): 0.191
- relative viability (A-427; first compound 0.0002 µM): 0.568
- relative viability (A-427; first compound 0.000632 µM): 0.569
- relative viability (A-427; first compound 0.002 µM): 0.443
- relative viability (A-427; first compound 0.006325 µM): 0.3
- relative viability (A-427; first compound 0.02 µM): 0.222
- relative viability (NCI-H1650; first compound 0.0002 µM): 0.376
- relative viability (NCI-H1650; first compound 0.000632 µM): 0.323
- relative viability (NCI-H1650; first compound 0.002 µM): 0.246
- relative viability (NCI-H1650; first compound 0.006325 µM): 0.2
- relative viability (NCI-H1650; first compound 0.02 µM): 0.193
- relative viability (HARA; first compound 0.0002 µM): 0.459
- relative viability (HARA; first compound 0.000632 µM): 0.314
- relative viability (HARA; first compound 0.002 µM): 0.249
- relative viability (HARA; first compound 0.006325 µM): 0.187
- relative viability (HARA; first compound 0.02 µM): 0.111
- relative viability (NCI-H1975; first compound 0.0002 µM): 0.37
- relative viability (NCI-H1975; first compound 0.000632 µM): 0.389
- relative viability (NCI-H1975; first compound 0.002 µM): 0.223
- relative viability (NCI-H1975; first compound 0.006325 µM): 0.177
- relative viability (NCI-H1975; first compound 0.02 µM): 0.122
- relative viability (COR-L23; first compound 0.0002 µM): 0.39
- relative viability (COR-L23; first compound 0.000632 µM): 0.443
- relative viability (COR-L23; first compound 0.002 µM): 0.291
- relative viability (COR-L23; first compound 0.02 µM): 0.121
- relative viability (NCI-H23; first compound 0.0002 µM): 0.33
- relative viability (NCI-H23; first compound 0.000632 µM): 0.303
- relative viability (NCI-H23; first compound 0.002 µM): 0.253
- relative viability (NCI-H23; first compound 0.006325 µM): 0.256
- relative viability (NCI-H23; first compound 0.02 µM): 0.157
- relative viability (201T; first compound 0.0002 µM): 0.782
- relative viability (201T; first compound 0.000632 µM): 0.778
- relative viability (201T; first compound 0.002 µM): 0.701
- relative viability (201T; first compound 0.006325 µM): 0.47
- relative viability (201T; first compound 0.02 µM): 0.331
- relative viability (NCI-H2342; first compound 0.0002 µM): 0.72
- relative viability (NCI-H2342; first compound 0.000632 µM): 0.72
- relative viability (NCI-H2342; first compound 0.002 µM): 0.583
- relative viability (NCI-H2342; first compound 0.006325 µM): 0.519
- relative viability (NCI-H2342; first compound 0.02 µM): 0.489
- relative viability (EKVX; first compound 0.0002 µM): 0.279
- relative viability (EKVX; first compound 0.000632 µM): 0.327
- relative viability (EKVX; first compound 0.002 µM): 0.26
- relative viability (EKVX; first compound 0.006325 µM): 0.198
- relative viability (EKVX; first compound 0.02 µM): 0.134
- relative viability (SW 900; first compound 0.0002 µM): 0.485
- relative viability (SW 900; first compound 0.000632 µM): 0.344
- relative viability (SW 900; first compound 0.002 µM): 0.323
- relative viability (SW 900; first compound 0.006325 µM): 0.296
- relative viability (SW 900; first compound 0.02 µM): 0.212
- relative viability (NCI-H1792; first compound 0.0002 µM): 0.445
- relative viability (NCI-H1792; first compound 0.000632 µM): 0.394
- relative viability (NCI-H1792; first compound 0.002 µM): 0.376
- relative viability (NCI-H1792; first compound 0.006325 µM): 0.172
- relative viability (NCI-H1792; first compound 0.02 µM): 0.0755
- relative viability (BEN; first compound 0.0002 µM): 0.522
- relative viability (BEN; first compound 0.000632 µM): 0.621
- relative viability (BEN; first compound 0.002 µM): 0.426
- relative viability (BEN; first compound 0.006325 µM): 0.417
- relative viability (BEN; first compound 0.02 µM): 0.325
- relative viability (NCI-H838; first compound 0.0002 µM): 0.446
- relative viability (NCI-H838; first compound 0.000632 µM): 0.496
- relative viability (NCI-H838; first compound 0.002 µM): 0.276
- relative viability (NCI-H838; first compound 0.006325 µM): 0.181
- relative viability (NCI-H838; first compound 0.02 µM): 0.159
